This is an account of results in patent US10626421B2, “Use of uric acid for culturing bacteria sensitive to oxygen tension” (FONDATION MEDITERRANEE INFECTION, priority 2014, dated 2020).

Several values for one entry are separate records, joined by “and”; a condition that tells them apart may be missing. Equal values may be shown once. Entries after “also recorded” stand apart in the source; their conditions may differ. Read-outs that look alike come from different tables or passages of the source.

In assay [1] the test system is Bacteroides thetaiotaomicron. Format: cell-based.
Assay [2] has as its system Bacteroides thetaiotaomicron. The experiment in a line: Culture in Schaedler 0.2% agar tubes, height of growth. Format: cell-based.
Assay [3] relates to anaerobic bacteria. The experiment in a line: Culture on Columbia medium with 5% sheep blood in ambient air. Format: cell-based. To be noted: 1 mg/ml; ambient air or ambient air enriched with 5% of CO2. The method, then: These geloses inoculated with anaerobic bacteria were incubated either in ambient air or in ambient air enriched with 5% of CO2. […] These tests were conducted with a Columbia medium with 5% sheep blood having the following composition for 1 liter: […]

Assay [4] concerns Clostridium tertium. Description: Liquid hemoculture BD BACTEC Plus Aerobic/F, growth detection by CO2. Format: cell-based. To be noted: Aerobic with UA 400 mg/L.
For assay [5], the system named is Clostridium perfringens. Format: cell-based. To be noted: Aerobic with UA 400 mg/L.
The subject of assay [6] is Clostridium butirycum. Description: Liquid hemoculture BD BACTEC Plus Aerobic/F, growth detection by CO2. Conditions: Aerobic with UA 400 mg/L. Format: cell-based. The method, then:
Hemocultures of strict anaerobic bacteria were made, inoculated to 10^5 cfu/mL on a culture medium: BD BACTEC™ Plus Aerobic/F. comprising 25 ml of enriched Trypticase soya broth, with resines (Reference: 442192) at 37° C. in an aerobic atmosphere with uric acid a 400 mg/L and without uric acid and in an anaerobic atmosphere without uric acid. The detection of the growth was ensured by detection of the production of CO2 with the BD BACTEC™ 9000 Series Instrumented Blood Culture Systems device.

Assay [7] relates to Helicobacter cinaedi strain DSMZ 5359. Description: Aerobic culture in Schaedler medium with uric acid. To be noted: without starch and glucose.
[8] abbreviates: single replicates, listed as UA.

As for `O=c1[nH]c(=O)c2[nH]c(=O)[nH]c2[nH]1` [uric acid, 7,9-dihydro-1H-purine-2,6,8(3H)-trione], the “growth with uric acid alone compared with mixture of uric acid, ascorbic acid and glutathion” value is given as “greater” in assay [1] (0.3 g/L of uric acid alone) and “equivalent” in assay [1] (uric acid alone at least 0.2 g/L). Moreover, the “culture result with production of hydrogen” value in assay [1] (aerobic conditions, 24 hour incubation, 37° C., uric acid alone 0.1, 0.2 or 0.3 g/L, or 0.1 g/L each of ascorbic acid, uric acid, glutathion) is recorded as “positive culture”. Moreover, the figures for the “extent of culture in deoxygenated tube” value in assay [2] (200 μg/ml) and in assay [2] (500 μg/ml) were “practically occurs up to the surface” and “completely up to the surface; also recorded: growth up to the surface”, respectively. Moreover, the “growth compared with ascorbic acid” value in assay [2] (500 μg/ml, Schaedler 0.2% agar tubes) is “identical”. In addition, in assay [3], the “growth on Columbia medium with 5% sheep blood” value was “Best growth”. Besides, the “Averages (growth time)” value in assay [4] is listed as 4.333; in assay [5], 6; in assay [6], 6.667. Also, the Growth time in assay [4] (setting [8]) is 4 h (2×) and 5 h; in assay [5] (setting [8]), 7 h and 5 h and 6 h; in assay [6] (setting [8]), 8 h and 6 h (2×). In addition, in assay [7], the “time until bacterium established in culture” value is on record as not above 24 h.
In the case of `O=C1O[C@H]([C@@H](O)CO)C(O)=C1O` [ascorbic acid, reference compound], the “growth on Columbia medium with 5% sheep blood” value in assay [3] is on record as “Best growth”.
